Experimental data: US7795290B2 (Genentech, Inc., priority 2004, dated 2010)

target: T1, AKT1 (Homo sapiens, UniProt P31749); assay: HTS ATP-utilizing enzyme assay, off-chip mobility-shift (Caliper HTS 250); format: biochemical; details: kinase named = inhibitory activity/selectivity; test compound 10 μM; active = greater than three-sigma from mean
T1 construct: purchased Upstate 14-276
How it was run: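 AKT1 activity was measured by off-chip mobility shift (Caliper HTS 250) as the ratio of peptide substrate to phosphorylated product. Test compound was at 10 μM, with 2.5 h incubation at 20–22° C. EDTA wells served as 100% control and DMSO wells as 0%. Hits were called at three-sigma limits.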

T1 sequence (P31749 whole entry): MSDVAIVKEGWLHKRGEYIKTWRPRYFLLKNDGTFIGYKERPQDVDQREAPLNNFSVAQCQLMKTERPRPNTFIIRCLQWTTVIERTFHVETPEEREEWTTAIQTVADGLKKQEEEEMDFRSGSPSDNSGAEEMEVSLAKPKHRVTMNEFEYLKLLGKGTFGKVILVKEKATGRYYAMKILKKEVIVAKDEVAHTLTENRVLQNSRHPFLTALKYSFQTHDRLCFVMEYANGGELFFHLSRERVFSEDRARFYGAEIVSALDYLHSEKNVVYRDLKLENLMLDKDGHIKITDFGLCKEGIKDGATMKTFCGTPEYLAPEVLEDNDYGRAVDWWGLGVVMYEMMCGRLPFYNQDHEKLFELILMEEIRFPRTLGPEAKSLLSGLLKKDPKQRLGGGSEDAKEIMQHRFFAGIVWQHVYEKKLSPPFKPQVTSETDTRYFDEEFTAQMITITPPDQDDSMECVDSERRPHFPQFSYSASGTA

Structure (SMILES) | Activity
Cn1cccc1C(=O)N(CCCN1CCCC1=O)c1nc(-c2cc(-c3ccccc3)no2)cs1 [1-methyl-N-(3-(2-oxopyrrolidin-1-yl)propyl)-N-(4-(3-phenylisoxazol-5-yl)thiazol-2-yl)-1H-pyrrole-2-carboxamide] | AKT1
CN1CCN(CCCN(C(=O)c2ccco2)c2nc(-c3ccccc3)cs2)CC1 [N-(3-(4-methylpiperazin-1-yl)propyl)-N-(4-phenylthiazol-2-yl)furan-2-carboxamidevv] | AKT1
CN(C)CCN1CCN(C(=O)CCCN(C(=O)c2cccs2)c2nc(-c3cc4ccccc4o3)cs2)CC1 [N-(4-(benzofuran-2-yl)thiazol-2-yl)-N-(4-(4-(2-(dimethylamino)ethyl)piperazin-1-yl)-4-oxobutyl)thiophene-2-carboxamide] | AKT1
CCOC(=O)N1CCN(CCCN(C(=O)c2cccs2)c2nc(-c3cc4ccccc4o3)cs2)CC1 [ethyl 4-(3-(N-(4-(benzofuran-2-yl)thiazol-2-yl)thiophene-2-carboxamido)propyl)piperazine-1-carboxylate] | AKT1
CC(C)(C)OC(=O)NCCNC(=O)CCCN(C(=O)c1cccs1)c1nc(-c2cc3ccccc3o2)cs1 [tert-butyl 2-(4-(N-(4-(benzofuran-2-yl)thiazol-2-yl)thiophene-2-carboxamido)butanamido)ethylcarbamate] | AKT1
O=C1CCCN1CCCN(C(=O)c1ccco1)c1nc(-c2cc(-c3ccccc3)no2)cs1 [N-(3-(2-oxopyrrolidin-1-yl)propyl)-N-(4-(3-phenylisoxazol-5-yl)thiazol-2-yl)furan-2-carboxamide] | AKT1
CCOC(=O)c1csc(N(CCCN2CCOCC2)C(=O)c2cccs2)n1 [ethyl 2-(N-(3-morpholinopropyl)thiophene-2-carboxamido)thiazole-4-carboxylate] | AKT1
O=C(CCCN(C(=O)c1cccs1)c1nc(-c2cc3ccccc3o2)cs1)NCc1ccccn1 [N-(4-(benzofuran-2-yl)thiazol-2-yl)-N-(4-oxo-4-(pyridin-2-ylmethylamino)butyl)thiophene-2-carboxamide] | AKT1
O=C1CN(CCCN(C(=O)c2cccs2)c2nc(-c3cc4ccccc4o3)cs2)CCN1 [N-(4-(benzofuran-2-yl)thiazol-2-yl)-N-(3-(3-oxopiperazin-1-yl)propyl)thiophene-2-carboxamide] | AKT1
CC(C)(C)OC(=O)NC1CCN(CCCN(C(=O)c2cccs2)c2nc(-c3cc4ccccc4o3)cs2)C1 (centres unmarked) [tert-butyl 1-(3-(N-(4-(benzofuran-2-yl)thiazol-2-yl)thiophene-2-carboxamido)propyl)pyrrolidin-3-ylcarbamate] | AKT1
O=C(Nc1nccs1)c1csc(N(CCCN2CCOCC2)C(=O)c2cccs2)n1 [2-(N-(3-morpholinopropyl)thiophene-2-carboxamido)-N-(thiazol-2-yl)thiazole-4-carboxamide] | AKT1
CN(C)CCCNC(=O)c1ccc(-c2csc(N(CCCN3CCOCC3)C(=O)c3cccs3)n2)cc1 [N-(4-(4-(3-(dimethylamino)propylcarbamoyl)phenyl)thiazol-2-yl)-N-(3-morpholinopropyl)thiophene-2-carboxamide] | AKT1
O=C(c1cccs1)N(CCCN1CCOCC1)c1nc(-c2ccccc2C(F)(F)F)cs1 [N-(3-morpholinopropyl)-N-(4-(2-(trifluoromethyl)phenyl)thiazol-2-yl)thiophene-2-carboxamide] | AKT1
NC(=O)C1CCCCN1CCCN(C(=O)c1cccs1)c1nc(-c2cc3ccccc3o2)cs1 (centres unmarked) [1-(3-(N-(4-(benzofuran-2-yl)thiazol-2-yl)thiophene-2-carboxamido)propyl)piperidine-2-carboxamide] | AKT1
CCOC(=O)CC1CCCN(C(=O)CCCN(C(=O)c2cccs2)c2nc(-c3cc4ccccc4o3)cs2)C1 (centres unmarked) [ethyl 2-(1-(4-(N-(4-(benzofuran-2-yl)thiazol-2-yl)thiophene-2-carboxamido)butanoyl)piperidin-3-yl)acetate] | AKT1
O=C(CCN(C(=O)c1cccs1)c1nc(-c2cc3ccccc3o2)cs1)NCCOc1ccccc1 [N-(4-(benzofuran-2-yl)thiazol-2-yl)-N-(3-oxo-3-(2-phenoxyethylamino)propyl)thiophene-2-carboxamide] | AKT1
COc1ccc(-c2csc(N(CCCN3CCCCCC3)C(=O)c3ccco3)n2)cc1 [N-(3-(azepan-1-yl)propyl)-N-(4-(4-methoxyphenyl)thiazol-2-yl)furan-2-carboxamide] | AKT1
O=C(c1cccs1)N(CCCn1ccnc1)c1nc(-c2cc3ccccc3o2)cs1 [N-(3-(1H-imidazol-1-yl)propyl)-N-(4-(benzofuran-2-yl)thiazol-2-yl)thiophene-2-carboxamide] | AKT1
O=C(c1cccs1)N(CCCN1CCOCC1)c1nc(C2CCCC2)cs1 [N-(4-cyclopentylthiazol-2-yl)-N-(3-morpholinopropyl)thiophene-2-carboxamide] | AKT1

Structure (SMILES) | Activity
O=C(CCN(C(=O)c1cccs1)c1nc(-c2cc3ccccc3o2)cs1)NCCO [N-(4-(benzofuran-2-yl)thiazol-2-yl)-N-(3-(2-hydroxyethylamino)-3-oxopropyl)thiophene-2-carboxamide] | AKT1
COc1ccc(OC)c(-c2csc(N(CCCN3CCCC3)C(=O)c3ccco3)n2)c1 [N-(4-(2,5-dimethoxyphenyl)thiazol-2-yl)-N-(3-(pyrrolidin-1-yl)propyl)furan-2-carboxamide] | AKT1
COc1ccc(OC)c(-c2csc(N(CCCN3CCCCCC3)C(=O)c3ccccc3)n2)c1 [N-(3-(azepan-1-yl)propyl)-N-(4-(2,5-dimethoxyphenyl)thiazol-2-yl)benzamide] | AKT1
COc1ccc(-c2csc(N(CCCN3CCCC3)C(=O)c3ccccc3)n2)cc1 [N-(4-(4-methoxyphenyl)thiazol-2-yl)-N-(3-(pyrrolidin-1-yl)propyl)benzamide] | AKT1
O=C(CCCN(C(=O)c1cccs1)c1nc(-c2cc3ccccc3o2)cs1)NCCc1ccncc1 [N-(4-(benzofuran-2-yl)thiazol-2-yl)-N-(4-oxo-4-(2-(pyridin-4-yl)ethylamino)butyl)thiophene-2-carboxamide] | AKT1
O=C(c1cccs1)N(CCCN1CCOCC1)c1nc(-c2ccccc2F)cs1 [N-(4-(2-fluorophenyl)thiazol-2-yl)-N-(3-morpholinopropyl)thiophene-2-carboxamide] | AKT1
CS(=O)(=O)c1ccc(-c2csc(N(CCCN3CCOCC3)C(=O)c3cccs3)n2)cc1 [N-(4-(4-(methylsulfonyl)phenyl)thiazol-2-yl)-N-(3-morpholinopropyl)thiophene-2-carboxamide] | AKT1
COc1ccc(OC)c(-c2csc(N(CCCN3CCOCC3)C(=O)c3ccco3)n2)c1 [N-(4-(2,5-dimethoxyphenyl)thiazol-2-yl)-N-(3-morpholinopropyl)furan-2-carboxamide] | AKT1
CN(C)C1CCN(CCCN(C(=O)c2cccs2)c2nc(-c3cc4ccccc4o3)cs2)C1 (centres unmarked) [N-(4-(benzofuran-2-yl)thiazol-2-yl)-N-(3-(3-(dimethylamino)pyrrolidin-1-yl)propyl)thiophene-2-carboxamide] | AKT1
C[S+]([O-])CCNC(=O)CCCN(C(=O)c1cccs1)c1nc(-c2cc3ccccc3o2)cs1 (centres unmarked) [N-(4-(benzofuran-2-yl)thiazol-2-yl)-N-(4-(2-(methylsulfinyl)ethylamino)-4-oxobutyl)thiophene-2-carboxamide] | AKT1
O=C(c1cccs1)N(CCC(=O)N1CCCC1CO)c1nc(-c2cc3ccccc3o2)cs1 (centres unmarked) [N-(4-(benzofuran-2-yl)thiazol-2-yl)-N-(3-(2-(hydroxymethyl)pyrrolidin-1-yl)-3-oxopropyl)thiophene-2-carboxamide] | AKT1
O=C1COc2ccc(-c3csc(N(CCCN4CCOCC4)C(=O)c4cccs4)n3)cc2N1 [N-(3-morpholinopropyl)-N-(4-(3-oxo-3,4-dihydro-2H-benzo[b][1,4]oxazin-6-yl)thiazol-2-yl)thiophene-2-carboxamide] | AKT1
O=C(CN1CCOCC1)NCCCN(C(=O)c1cccs1)c1nc(-c2cc3ccccc3o2)cs1 [N-(4-(benzofuran-2-yl)thiazol-2-yl)-N-(3-(2-morpholinoacetamido)propyl)thiophene-2-carboxamide] | AKT1
Cc1nc(-c2cnccn2)sc1-c1csc(N(CCCN2CCOCC2)C(=O)c2cccs2)n1 [N-(4′-methyl-2′-(pyrazin-2-yl)-4,5′-bithiazol-2-yl)-N-(3-morpholinopropyl)thiophene-2-carboxamide] | AKT1
O=C(c1cccs1)N(CCCN1CCCC(CO)C1)c1nc(-c2cc3ccccc3o2)cs1 (centres unmarked) [N-(4-(benzofuran-2-yl)thiazol-2-yl)-N-(3-(3-(hydroxymethyl)piperidin-1-yl)propyl)thiophene-2-carboxamide] | AKT1
O=C(c1cccnc1)N(CCCN1CCOCC1)c1nc(-c2cc3ccccc3o2)cs1 [N-(4-(benzofuran-2-yl)thiazol-2-yl)-N-(3-morpholinopropyl)nicotinamide] | AKT1
COc1ccc(-c2csc(N(CCCN3CCCC3)C(=O)c3ccco3)n2)cc1 [N-(4-(4-methoxyphenyl)thiazol-2-yl)-N-(3-(pyrrolidin-1-yl)propyl)furan-2-carboxamide] | AKT1
O=C(c1cccs1)N(CCCN1CCOCC1)c1nc(-c2ccc(OC(F)F)cc2)cs1 [N-(4-(4-(difluoromethoxy)phenyl)thiazol-2-yl)-N-(3-morpholinopropyl)thiophene-2-carboxamide] | AKT1
CN(C)C1CCN(C(=O)CCN(C(=O)c2cccs2)c2nc(-c3cc4ccccc4o3)cs2)C1 (centres unmarked) [N-(4-(benzofuran-2-yl)thiazol-2-yl)-N-(3-(3-(dimethylamino)pyrrolidin-1-yl)-3-oxopropyl)thiophene-2-carboxamide] | AKT1
